# Source: article PMC5826973 (Frontiers in Pharmacology, 2018)
# How the values were obtained:
# QGY HCC cells = experiment: MTT-based cell proliferation assay, QGY; set-up: species or system human
# Description: (§1) Human HCC cells SK-HEP1 and QGY; breast cancer cells HCC1954, BT474, and MDA-MB468; ovarian cancer cells SKOV3; and prostate cancer cells PC3 and LNCaP were purchased from the Cell Bank of Chinese Academy of Sciences (Shanghai, China), and cultured in T75 flasks with complete DMEM or RPMI 1640 medium (GIBCO, Invitrogen, Gaithersburg, CA, United States) supplemented with 10% FBS (Hyclone, New Zealand), and 1% penicillin/streptomycin (Solarbio, Beijing, China) at 37°C in a humidified atmosphere containing 5% CO2.
# (§2) Cell proliferation was determined using methylthiazolyl diphenyl-tetrazolium bromide assay (MTT; Sigma–Aldrich). The cells were seeded onto 96-well plates in a total volume of 150 μl at a density of 3.5 × 10^4 cells/well. […] To avoid the effect of the solvent, the concentration of DMSO was less than 0.1% (v/v) in all experiments. After incubation at 37°C for 48 h, 10 μl of MTT solution (5 mg/ml) was added and continued to incubate for 4 h. Following removal of medium containing MTT, 200 μl of DMSO was added to dissolve the formazan crystals formed by live cells. Solution absorbance was measured at 490 nm with an absorbance microplate reader (BioTek, Winooski, VT, United States). The assay was repeated six times. The IC50 value was determined from plot of % viability against the dose of compounds added.
# SK-HEP1 HCC cells = experiment: MTT-based cell proliferation assay, SK-HEP1; set-up: species or system human
# Description: as §1, §2
# CyPJ = molecular target: T1, CyPJ (Homo sapiens, UniProt Q9H2H8); experiment: Surface plasmon resonance (SPR) binding assay; settings: Biacore 3000, recombinant human CyPJ immobilized on CM5 chip, 20°C, compounds 0.3–10 μM
# T1 construct: made in house
# T1 sequence (Q9H2H8 1-161): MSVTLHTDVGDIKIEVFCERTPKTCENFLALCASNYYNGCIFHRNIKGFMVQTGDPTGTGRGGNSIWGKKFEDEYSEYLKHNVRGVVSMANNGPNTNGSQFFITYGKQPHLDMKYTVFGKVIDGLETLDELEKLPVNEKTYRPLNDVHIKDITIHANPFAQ
# Description: The binding affinity of the selected compounds to CyPJ was measured by SPR with a Biacore 3000 instrument (Biacore AB Corporation, Uppsala, Sweden) as previously described ([Guo et al., 2005]; [Chen et al., 2007]). Briefly, recombinant human CyPJ protein was immobilized on an activated sensor chip via amine coupling. CyPJ protein (10 μM) was coupled to a CM5 sensor chip surface (a carboxymethylated dextran surface; CM5 chip from Biacore, Inc., Piscataway, NJ, United States) in a buffer containing 10 mM sodium acetate (pH 4.0) using standard amine coupling chemistry according to the manufacturer’s instructions. Flow cell 1 (FC-1) was used as the control surface and flow cell 2 (FC-2) contained 9000 resonance units (RU) of CyPJ (1 RU corresponds to 1 pg of protein per mm^2). The buffer stream was passed through FC-1 and FC-2 of the bi-channel at a flow rate of 40 μl/min. Compounds to be tested were purchased from SPECS (Netherlands). All chemicals were of the highest purity available, as certified by the vendor. All compounds were stocked in 100% dimethylsulfoxide at 10 mM and diluted at graded concentrations (0.3–10 μM) with HBS-EP buffer (0.01 M HEPES buffer, pH 7.4, containing 0.15 M NaCl, 3.4 mM EDTA, and 0.005% surfactant P20) containing 1% dimethylsulfoxide. The temperature of the instrument was set to 20°C, and the flow rate was set to 40 μl/min. Each compound (50 μl) was injected sequentially. NaOH (50 mM) was used to regenerate the surface of the CM5 chip. The 1:1 Langmuir binding model was used to determine the equilibrium dissociation constant (KD). For fast interactions, the steady-state model was used to determine KD values. All experiments were carried out in triplicate.
# CyPJ PPIase = molecular target: T2, CyPJ PPIase (Homo sapiens, UniProt Q9H2H8); experiment: α-chymotrypsin-coupled PPIase assay; assay type: biochemical; settings: for IC50: read-out: Compound IC50 for PPIase; for Compound IC50 for PPIase: CyPJ PPIase, substrate Suc-AAPF-pNA, 8°C, – = no inhibition detectable
# T2 construct: made in house
# T2 sequence (Q9H2H8 1-161): T1 sequence (Q9H2H8 1-161)
# Description: We used an α-chymotrypsin-coupled PPIase assay, where the substrate succinyl-Ala-Ala-Pro-Phe-p-nitroanilide (Suc-AAPF-pNA) is first converted to the trans conformation by PPIase, and can then be digested by α-chymotrypsin to release chromogenic p-nitroanilide; the latter compound is then monitored with a spectrometer. Briefly, the assay was performed under 8°C in a 100 μl system. The Suc-AAPF-pNA was dissolved in the […] containing 480 mM of LiCl (working concentration: 3.0 mM). The α-chymotrypsin was dissolved in 1 mM HCl (working concentration: […]). When assayed, each test compound was diluted in 94 μl of assay buffer (50 mM HEPES, 100 mM NaCl; pH 8.0 at 0°C), and then mixed with 2 μl of CyPJ solution (5 μM). […] Three independent experiments were performed for each test compound and the respective half maximal inhibitory concentration (IC50) was calculated with OriginPro 7.5 software (OriginLab, Northampton, MA, United States).
# The inhibitory effect of each compounds was determined with a standard spectrophotometric method in chymotrypsin-coupled assays with different concentrations of peptide substrate. The rate constants for the cis–trans conversion were evaluated by fitting the data to the integrated first-order rate equation through nonlinear least-square analysis.
# [1] = tested on: PC3 prostate cancer cells; experiment: Growth inhibition, PC3; assay type: cell-based, human
# Description: as §1, §2
# [2] = tested on: SKOV3 ovarian cancer cells; experiment: Growth inhibition, SKOV3; assay type: cell-based, human
# Description: as §1, §2
# [3] = tested on: LNCaP prostate cancer cells; experiment: Growth inhibition, LNCaP; assay type: cell-based, human
# Description: as §1, §2
# [4] = tested on: HCC1954 breast cancer cells; experiment: Growth inhibition, HCC1954; assay type: cell-based, human
# Description: as §1, §2
# [5] = tested on: BT474 breast cancer cells; experiment: Growth inhibition, BT474; assay type: cell-based, human
# Description: as §1, §2
# [6] = tested on: MDA-MB-468 breast cancer cells; experiment: Growth inhibition, MDA-MB-468; assay type: cell-based, human
# Description: as §1, §2
# [7] = Table 4, ZX-J-19 derivatives, 48 h
SMILES,IC50 (QGY HCC cells; [7]) [µM],IC50 (SK-HEP1 HCC cells; [7]) [µM],Kd (CyPJ) [µM],further results
CC(C)(C)C(=O)Nc1ccc2nc(-c3ccccc3)c(-c3ccccc3)nc2c1 [ZX-J-19b],26,21.6,–,–
"O=c1[nH]cc(F)c(=O)[nH]1 [Compound 5-FU, 5-fluorouracil, reference compound]",–,–,–,"IC50 (QGY HCC cells; Homo sapiens, Table 2, 48 h): 238.53 ± 0.035 µM; IC50 (SK-HEP1 HCC cells; Homo sapiens, SK-HEP1, Table 2, 48 h): 177.24 ± 0.065 µM"
CCOC(=O)c1ccc(NC(=O)c2cc(-c3ccc(C)c(C)c3)nc3ccccc23)cc1 [ZX-J-8],–,–,14.5,IC50 (CyPJ PPIase): 10.3 ± 0.442 µM
CCCC(=O)Nc1ccc2nc(-c3ccccc3)c(-c3ccccc3)nc2c1 [ZX-J-19l],21.4,3.51,–,% Growth inhibition at 20 μM [1]: 91.039%; % Growth inhibition at 20 μM [2]: 90.919%; % Growth inhibition at 20 μM [3]: 91.038%; % Growth inhibition at 20 μM [4]: 91.258%; % Growth inhibition at 20 μM [5]: 90.963%; % Growth inhibition at 20 μM [6]: 90.849%
CC(=O)Nc1ccc2nc(-c3ccc[nH]3)c(-c3ccc[nH]3)nc2c1 [ZX-J-19u],32.7,14.2,–,–
CCCC(=O)Nc1ccc2nc(-c3ccco3)c(-c3ccco3)nc2c1 [ZX-J-19n],18,17.7,–,–
O=C(Nc1ccc2nc(-c3ccccc3)c(-c3ccccc3)nc2c1)c1ccccc1 [ZX-J-19h],27.5,40.3,–,–
O=C(Nc1ccc2nc(-c3ccco3)c(-c3ccco3)nc2c1)c1ccc([N+](=O)[O-])cc1 [ZX-J-19q],44.3,43.6,–,–
O=C(Nc1ccc2nc(-c3ccco3)c(-c3ccco3)nc2c1)c1ccccc1 [ZX-J-19r],17.3,18.8,–,–
COc1ccc(CCNC(=O)c2ccc(C(=O)NCCc3ccc(OC)c(OC)c3)nc2)cc1OC [ZX-J-10],–,–,0.8,Compound IC50 for PPIase (CyPJ PPIase): no inhibition
COc1cc(NC(=O)COc2ccc3ccccc3c2)ccc1NC(=O)c1cc2ccccc2o1 [ZX-J-15],–,–,0.661,Compound IC50 for PPIase (CyPJ PPIase): no inhibition
"CCCCCCCC(=O)Nc1ccc2nc(-c3ccccc3)c(-c3ccccc3)nc2c1 [ZX-J-19j, N-(2,3-diphenylquinoxalin-6-yl)octanamide]",–,–,–,"IC50 (QGY HCC cells; Homo sapiens, Table 4, ZX-J-19 derivatives, 48 h): 12.5 µM; inhibition at 20 µM ([1]; Homo sapiens): 84.7%; inhibition at 20 µM ([2]; Homo sapiens, SK-OV-3): 48.1%; inhibition at 20 µM ([3]; Homo sapiens): 48.1%; inhibition at 20 µM ([4]; Homo sapiens): 64.2%; inhibition at 20 µM ([5]; Homo sapiens, BT-474): 84%; inhibition at 20 µM ([6]; Homo sapiens): 84.7%; IC50 (SK-HEP1 HCC cells; Homo sapiens, SK-HEP1, Table 4, ZX-J-19 derivatives, 48 h): 6.73 µM"
Cc1cc(NC(=O)C(=O)NCCN2CCN(C(=O)c3ccccc3F)CC2)ccc1Br [ZX-J-18],–,–,0.242,Compound IC50 for PPIase (CyPJ PPIase): no inhibition
O=C(Nc1ccc2nc(-c3ccccc3)c(-c3ccccc3)nc2c1)c1cccc(Cl)c1 [ZX-J-19e],12.3,7.5,–,–
CCCCOc1cccc(-c2cc(C(=O)Nc3ccc4c(c3)OCCO4)c3ccccc3n2)c1 [ZX-J-12],–,–,118,IC50 (CyPJ PPIase): 12.95 ± 0.054 µM
O=C(Nc1ccc2nc(-c3ccccc3)c(-c3ccccc3)nc2c1)c1ccc(Cl)cc1 [ZX-J-19g],11.3,9.89,–,–
C/C(=N/NC(=O)c1ccc(COc2ccc3c(c2)CCC3)o1)c1ccc(NC(=O)C2CCCC2)cc1 [ZX-J-11],–,–,0.0988,IC50 (CyPJ PPIase): 19.95 ± 0.025 µM
COc1cc(/C=N/NC(=O)c2cc3c(ccc4ccccc43)o2)ccc1OCc1ccccc1F [ZX-J-17],–,–,0.0435,Compound IC50 for PPIase (CyPJ PPIase): no inhibition
CCCCCCCC(=O)Nc1ccc2nc(-c3ccco3)c(-c3ccco3)nc2c1 [ZX-J-19o],98.4,17.3,–,–
O=C(CCl)Nc1ccc2nc(-c3ccccc3)c(-c3ccccc3)nc2c1 [ZX-J-19d],17.9,11.3,–,–
CC(C)(C)C(=O)Nc1ccc2nc(-c3ccco3)c(-c3ccco3)nc2c1 [ZX-J-19m],82.3,76.7,–,–
CCC(=O)Nc1ccc2nc(-c3ccccc3)c(-c3ccccc3)nc2c1 [ZX-J-19i],–,40.8,–,–
O=C(CCl)Nc1ccc2nc(-c3ccc[nH]3)c(-c3ccc[nH]3)nc2c1 [ZX-J-19v],127,140,–,–
CC(C)OC(=O)c1ccc(NC(=O)c2ccc(COc3ccccc3Cl)o2)cc1 [ZX-J-13],–,–,0.516,IC50 (CyPJ PPIase): 12.63 ± 0.068 µM
CC(=O)Nc1ccc2nc(-c3ccccc3)c(-c3ccccc3)nc2c1 [ZX-J-19k],199,7.53,–,–
COc1ccc(NC(=O)c2ccc(COc3ccccc3Br)o2)c(OC)c1 [ZX-J-9],–,–,1.29,IC50 (CyPJ PPIase): 8.54 ± 0.965 µM
CCCOC(=O)c1ccc(N2C(=O)c3ccc(C(=O)OC(C)C(=O)c4ccc(C)cc4)cc3C2=O)cc1 (stereo not drawn) [ZX-J-16],–,–,3.41,IC50 (CyPJ PPIase): 18.5 ± 0.727 µM
O=C(Nc1ccc2nc(-c3ccco3)c(-c3ccco3)nc2c1)c1ccccc1Cl [ZX-J-19p],–,45.7,–,–
O=C(Nc1ccc2nc(-c3ccccc3)c(-c3ccccc3)nc2c1)c1ccc([N+](=O)[O-])cc1 [ZX-J-19c],37.6,–,–,–
O=C(Nc1ccc2nc(-c3ccc[nH]3)c(-c3ccc[nH]3)nc2c1)c1ccc(Cl)cc1 [ZX-J-19t],42.5,46.3,–,–
